Reference: ChEMBL document CHEMBL1201862, “PubChem BioAssay data set” (2004)
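Assay format: 96-well plates, 48-hour exposure. GI50 = concentration required for 50% inhibition of growth.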 Active and inactive are the calls of the source. Cut-off read from the data, not from the text of the source: active = GI50 up to about 1.1 µM and inactive = higher.

Key:
Test in all cases: DTP human tumour cell line panel, 48 h
786-0 = tested on: 786-0
A498 = tested on: A498
A549 = tested on: A549
ACHN = tested on: ACHN
CAKI-1 = tested on: CAKI-1
CCRF-CEM = tested on: CCRF-CEM
COLO 205 = tested on: COLO 205
DU-145 = tested on: DU-145
EKVX = tested on: EKVX
HCC 2998 = tested on: HCC 2998
HCT-116 = tested on: HCT-116
HCT-15 = tested on: HCT-15
HL-60 = tested on: HL-60
HOP-62 = tested on: HOP-62
HT-29 = tested on: HT-29
Hs-578T = tested on: Hs-578T
IGROV-1 = tested on: IGROV-1
K562 = tested on: K562
KM12 = tested on: KM12
LOX IMVI = tested on: LOX IMVI
M14 = tested on: M14
MCF7 = tested on: MCF7
MDA-MB-231 = tested on: MDA-MB-231
MDA-MB-435 = tested on: MDA-MB-435
MDA-N = tested on: MDA-N
MOLT-4 = tested on: MOLT-4
Malme-3M = tested on: Malme-3M
NCI-H226 = tested on: NCI-H226
NCI-H23 = tested on: NCI-H23
NCI-H460 = tested on: NCI-H460
NCI-H522 = tested on: NCI-H522
NCI/ADR-RES = tested on: NCI/ADR-RES
OVCAR-3 = tested on: OVCAR-3
OVCAR-4 = tested on: OVCAR-4
OVCAR-5 = tested on: OVCAR-5
OVCAR-8 = tested on: OVCAR-8
PC-3 = tested on: PC-3
RPMI-8226 = tested on: RPMI-8226
RXF 393 = tested on: RXF 393
SF-268 = tested on: SF-268
SF-295 = tested on: SF-295
SF-539 = tested on: SF-539
SK-MEL-28 = tested on: SK-MEL-28
SK-MEL-2 = tested on: SK-MEL-2
SK-MEL-5 = tested on: SK-MEL-5
SK-OV-3 = tested on: SK-OV-3
SN12C = tested on: SN12C
SNB-19 = tested on: SNB-19
SNB-75 = tested on: SNB-75
SW-620 = tested on: SW-620
T47D = tested on: T47D
TK-10 = tested on: TK-10
U-251 = tested on: U-251
UACC-257 = tested on: UACC-257
UACC-62 = tested on: UACC-62
HOP-92 = tested on: HOP-92
SR = tested on: SR
UO-31 = tested on: UO-31

## SC1=NC2=C(CSC/C2=C\c2cccc(Br)c2)C(c2cccc(Br)c2)N1 (configuration not stated)
786-0
  GI50: 66.8 µM (inactive)
A498
  GI50: > 100 µM (inactive)
A549
  GI50: > 100 µM (inactive)
ACHN
  GI50: > 100 µM (inactive)
CAKI-1
  GI50: > 100 µM (inactive)
CCRF-CEM
  GI50: 65.9 µM (inactive)
COLO 205
  GI50: 36.2 µM (inactive)
DU-145
  GI50: > 100 µM (inactive)
EKVX
  GI50: 42.3 µM (inactive)
HCC 2998
  GI50: > 100 µM (inactive)
HCT-116
  GI50: 43.7 µM (inactive)
HCT-15
  GI50: > 100 µM
HL-60
  GI50: > 100 µM (inactive)
HOP-62
  GI50: > 100 µM (inactive)
HT-29
  GI50: 42.3 µM (inactive)
Hs-578T
  GI50: > 100 µM (inactive)
IGROV-1
  GI50: > 100 µM (inactive)
K562
  GI50: 45.7 µM (inactive)
KM12
  GI50: 88.5 µM (inactive)
LOX IMVI
  GI50: > 100 µM (inactive)
M14
  GI50: 46.2 µM (inactive)
MCF7
  GI50: 64.1 µM (inactive)
MDA-MB-231
  GI50: > 100 µM (inactive)
MDA-MB-435
  GI50: 41.3 µM (inactive)
MDA-N
  GI50: 68.2 µM (inactive)
MOLT-4
  GI50: 38.7 µM (inactive)
Malme-3M
  GI50: > 100 µM (inactive)
NCI-H226
  GI50: > 100 µM (inactive)
NCI-H23
  GI50: 63.4 µM (inactive)
NCI-H460
  GI50: 55.6 µM (inactive)
NCI-H522
  GI50: > 100 µM (inactive)
NCI/ADR-RES
  GI50: 61.9 µM (inactive)
OVCAR-3
  GI50: > 100 µM (inactive)
OVCAR-4
  GI50: 93.5 µM (inactive)
OVCAR-5
  GI50: > 100 µM (inactive)
OVCAR-8
  GI50: > 100 µM (inactive)
PC-3
  GI50: 46.7 µM (inactive)
RPMI-8226
  GI50: 64.7 µM (inactive)
RXF 393
  GI50: > 100 µM (inactive)
SF-268
  GI50: > 100 µM (inactive)
SF-295
  GI50: > 100 µM (inactive)
SF-539
  GI50: > 100 µM (inactive)
SK-MEL-28
  GI50: > 100 µM (inactive)
SK-MEL-2
  GI50: > 100 µM (inactive)
SK-MEL-5
  GI50: 30.3 µM (inactive)
SK-OV-3
  GI50: > 100 µM (inactive)
SN12C
  GI50: > 100 µM (inactive)
SNB-19
  GI50: > 100 µM (inactive)
SNB-75
  GI50: 41.6 µM (inactive)
SW-620
  GI50: > 100 µM (inactive)
T47D
  GI50: 25 µM (inactive)
TK-10
  GI50: > 100 µM (inactive)
U-251
  GI50: > 100 µM (inactive)
UACC-257
  GI50: > 100 µM (inactive)
UACC-62
  GI50: > 100 µM (inactive)

## CCSCCCCC(c1ccc(O)cc1)C(C)(CC)c1ccc(O)cc1 (configuration not stated)
786-0
  GI50: 24.4 µM (inactive)
A498
  GI50: > 100 µM (inactive)
A549
  GI50: 25.4 µM (inactive)
ACHN
  GI50: 18.6 µM (inactive)
CAKI-1
  GI50: 35 µM (inactive)
CCRF-CEM
  GI50: 18.6 µM (inactive)
COLO 205
  GI50: 20.4 µM (inactive)
DU-145
  GI50: > 100 µM (inactive)
EKVX
  GI50: 29.6 µM (inactive)
HCC 2998
  GI50: 15.3 µM (inactive)
HCT-116
  GI50: 17.9 µM (inactive)
HCT-15
  GI50: 18.4 µM
HL-60
  GI50: > 100 µM (inactive)
HOP-62
  GI50: 53.7 µM (inactive)
HOP-92
  GI50: 19.3 µM (inactive)
Hs-578T
  GI50: 23.6 µM (inactive)
IGROV-1
  GI50: 16.9 µM (inactive)
K562
  GI50: 42.1 µM (inactive)
KM12
  GI50: 21.6 µM (inactive)
LOX IMVI
  GI50: 17.6 µM (inactive)
M14
  GI50: 31 µM (inactive)
MCF7
  GI50: 27.4 µM (inactive)
MDA-MB-231
  GI50: 21.7 µM (inactive)
MDA-MB-435
  GI50: 18.2 µM (inactive)
MDA-N
  GI50: 23.2 µM (inactive)
MOLT-4
  GI50: 32.1 µM (inactive)
Malme-3M
  GI50: 20.3 µM (inactive)
NCI-H226
  GI50: 17.9 µM (inactive)
NCI-H23
  GI50: 19.6 µM (inactive)
NCI-H460
  GI50: 30.1 µM (inactive)
NCI-H522
  GI50: 17.7 µM (inactive)
NCI/ADR-RES
  GI50: 20.3 µM (inactive)
OVCAR-3
  GI50: 18.2 µM (inactive)
OVCAR-4
  GI50: 21.7 µM (inactive)
OVCAR-5
  GI50: 24.4 µM (inactive)
OVCAR-8
  GI50: 19.3 µM (inactive)
PC-3
  GI50: 20.3 µM (inactive)
RPMI-8226
  GI50: 19.5 µM (inactive)
RXF 393
  GI50: 6.92 µM (inactive)
SF-268
  GI50: 20.3 µM (inactive)
SF-295
  GI50: 31.3 µM (inactive)
SF-539
  GI50: 20 µM (inactive)
SK-MEL-28
  GI50: 18 µM (inactive)
SK-MEL-2
  GI50: 16 µM (inactive)
SK-MEL-5
  GI50: 18.2 µM (inactive)
SK-OV-3
  GI50: 21.1 µM (inactive)
SN12C
  GI50: 33.1 µM (inactive)
SNB-19
  GI50: 24.5 µM (inactive)
SNB-75
  GI50: > 100 µM (inactive)
SR
  GI50: 38.7 µM (inactive)
SW-620
  GI50: 21.4 µM (inactive)
T47D
  GI50: 14.4 µM (inactive)
TK-10
  GI50: 17.4 µM (inactive)
U-251
  GI50: 16.4 µM (inactive)
UACC-257
  GI50: 22.2 µM (inactive)
UACC-62
  GI50: 27.2 µM (inactive)
UO-31
  GI50: 19.6 µM (inactive)
